The test system of data set [1] is Candida albicans. Kind of data set: Antifungal activity against Candida albicans ATCC 90028 assessed as growth inhibition at 2 ug/ml after 48 hrs by broth microdilution method relative to control. The class given is functional. As to conditions: ATCC 90028, 48 h, read-out: GI. Background: Dilution methods test growth across graded concentrations, often in twofold steps.

Data set [2] is described as follows: Antifungal activity against Fusarium oxysporum MF5 assessed as radial growth inhibition at 64 ug/ml after 5 to 7 days relative to control. The class given is functional.
Data set [3] deals with Candida albicans. In words: Antifungal activity against Candida albicans ATCC 90028 after 18 to 48 hrs in presence of 2.5 ug/ml fluconazole by checkerboard assay. The class given is functional.
Data set [4] deals with Candida albicans. Kind of data set: Antifungal activity against Candida albicans ATCC 90028 assessed as fractional inhibitory concentration index after 18 to 48 hrs in presence of fluconazole by checkerboard assay. The class given is functional.
Data set [5] deals with Candida albicans. Kind of data set: Antifungal activity against Candida albicans ATCC 90028 after 18 to 48 hrs in presence of 10 ug/ml fluconazole by checkerboard assay. The class given is functional.
Data set [6] has as its system Candida albicans. In words: Antifungal activity against Candida albicans ATCC 90028 assessed as growth inhibition at 16 ug/ml after 48 hrs by broth microdilution method relative to control. The class given is functional. As to conditions: ATCC 90028, 48 h, read-out: GI.
Data set [7] concerns Candida albicans. Kind of data set: Antifungal activity against Candida albicans ATCC 90028 assessed as growth inhibition at 8 ug/ml after 48 hrs by broth microdilution method relative to control. The class given is functional. The settings on record: ATCC 90028, 48 h, read-out: GI.
The test system of data set [8] is Candida albicans. Kind of data set: Antifungal activity against Candida albicans ATCC 90028 assessed as growth inhibition after 48 hrs in presence of osmotic protector 0.8 M sorbitol by broth microdilution method. The class given is functional. The settings on record: ATCC 90028, 48 h.
In data set [9] the test system is Aspergillus niger. Kind of data set: Antifungal activity against Aspergillus niger ATCC 16404 assessed as radial growth inhibition at 64 ug/ml after 5 to 7 days relative to control. The class given is functional. The settings on record: read-out: GI.
For data set [10], the system named is Candida albicans. In words: Antifungal activity against Candida albicans ATCC 90028 assessed as fractional inhibitory concentration after 18 to 48 hrs in presence of fluconazole by checkerboard assay. The class given is functional.
Data set [11] concerns Candida albicans. In words: Antifungal activity against Candida albicans ATCC 90028 assessed as growth inhibition at 0.0625 ug/ml after 48 hrs by broth microdilution method relative to control. As to conditions: ATCC 90028, 48 h, read-out: GI. The class given is functional.
In data set [12] the test system is Candida albicans. Kind of data set: Antifungal activity against Candida albicans ATCC 90028 assessed as growth inhibition at 1 ug/ml after 48 hrs by broth microdilution method relative to control. The settings on record: ATCC 90028, 48 h, read-out: GI. The class given is functional.
The test system of data set [13] is Candida albicans. Kind of data set: Antifungal activity against Candida albicans ATCC 90028 assessed as growth inhibition after 48 hrs by broth microdilution method. The class given is functional. As to conditions: ATCC 90028, 48 h.
For data set [14], the system named is Candida albicans. Kind of data set: Antifungal activity against Candida albicans ATCC 90028 after 18 to 48 hrs in presence of 80 ug/ml fluconazole by checkerboard assay. The class given is functional.
For data set [15], the system named is Candida albicans. In words: Fungicidal activity against Candida albicans ATCC 90028 at MIC after 48 hrs in presence of osmotic protector 0.8 M sorbitol by broth microdilution method. The class given is functional.
Data set [16] in a line: Antifungal activity against Fusarium sambucinum MF1 assessed as radial growth inhibition at 64 ug/ml after 5 to 7 days relative to control. The class given is functional.
Data set [17] has as its system Candida albicans. Kind of data set: Antifungal activity against Candida albicans ATCC 90028 assessed as growth inhibition after 7 days in presence of osmotic protector 0.8 M sorbitol by broth microdilution method. The class given is functional. As to conditions: ATCC 90028, 168 h.
The nature of data set [18]: Toxicity in last instar larval stage of Galleria mellonella assessed as survival at 16 ug/ml after 96 hrs.
Data set [19] deals with Candida albicans. In words: Fungicidal activity against Candida albicans ATCC 90028 at MIC after 7 days in presence of osmotic protector 0.8 M sorbitol by broth microdilution method. The class given is functional.
Data set [20] deals with Candida albicans. Kind of data set: Antifungal activity against Candida albicans ATCC 90028 after 18 to 48 hrs in presence of 5 ug/ml fluconazole by checkerboard assay. The class given is functional.
For data set [21], the system named is Candida albicans. In words: Antifungal activity against Candida albicans ATCC 90028 after 18 to 48 hrs in presence of 40 ug/ml fluconazole by checkerboard assay. The class given is functional.
The subject of data set [22] is Candida albicans. In words: Antifungal activity against Candida albicans ATCC 90028 assessed as growth inhibition at 0.125 ug/ml after 48 hrs by broth microdilution method relative to control. As to conditions: ATCC 90028, 48 h, read-out: GI. The class given is functional.
Data set [23] can be described thus: Antifungal activity against Colletotrichum coccodes MC1 assessed as radial growth inhibition at 64 ug/ml after 5 to 7 days relative to control. The class given is functional.
The subject of data set [24] is Candida albicans. In words: Antifungal activity against Candida albicans ATCC 90028 assessed as growth inhibition at 0.5 ug/ml after 48 hrs by broth microdilution method relative to control. The settings on record: ATCC 90028, 48 h, read-out: GI. The class given is functional.
Data set [25] has as its system Candida albicans. In words: Antifungal activity against Candida albicans ATCC 90028 assessed as growth inhibition at 0.0313 ug/ml after 48 hrs by broth microdilution method relative to control. The class given is functional. The settings on record: ATCC 90028, 48 h, read-out: GI.
Data set [26] deals with Candida albicans. Kind of data set: Antifungal activity against Candida albicans ATCC 90028 after 18 to 48 hrs in presence of 1.25 ug/ml fluconazole by checkerboard assay. The class given is functional.
The test system of data set [27] is Candida albicans. Kind of data set: Antifungal activity against Candida albicans ATCC 90028 assessed as growth inhibition at 4 ug/ml after 48 hrs by broth microdilution method relative to control. The class given is functional. As to conditions: ATCC 90028, 48 h, read-out: GI.
The test system of data set [28] is Candida albicans. In words: Antifungal activity against Candida albicans ATCC 90028 assessed as growth inhibition after 18 to 48 hrs in presence of 1.25 ug/ml fluconazole by checkerboard assay. The class given is functional.
Data set [29] has as its system Candida albicans. Kind of data set: Antifungal activity against Candida albicans ATCC 90028 after 18 to 48 hrs in presence of 20 ug/ml fluconazole by checkerboard assay. The class given is functional.
Data set [30] has as its system Candida albicans. Kind of data set: Antifungal activity against Candida albicans ATCC 90028 assessed as growth inhibition at 0.25 ug/ml after 48 hrs by broth microdilution method relative to control. The class given is functional. The settings on record: ATCC 90028, 48 h, read-out: GI.

As to `Clc1ccc(-c2nnn(CCCSc3nc4ccccc4o3)n2)cc1`, the inhibition of growth at 2 µg/mL in [1] amounted to 99.5%. Moreover, the growth inhibition (GI) is 4% in data set [2], 14.5% in data set [16] and 46.7% in data set [23]. The Activity in [3] turned out to be 100%; in data set [5], 99%; in [14], 100%; in data set [15], 100%; in [19], 100%; in [20], 99%. Besides, the Activity in data set [21] is listed as 100%; in data set [26] it was 100%; in data set [29] it was 98%. Further, the “fractional inhibitory concentration index (FICI)” value in data set [4] is on record as 5.08. Further, the inhibition of growth at 16 µg/mL in data set [6] was determined as 99.2%. The inhibition of growth at 8 µg/mL in [7] was found to be 99.4%. Moreover, the minimal inhibitory concentration (MIC) in [8] was 1 µg/mL; in [13], above 16 µg/mL; in [17], 1 µg/mL; in data set [28], 1.25 µg/mL. The inhibition of growth at 64 µg/mL in [9] was 11.8%. For the same compound, the Ratio in data set [10] is on record as 0.08. Further, the inhibition of growth at 0.0625 µg/mL in [11] is 99.1%. The inhibition of growth at 1 µg/mL in data set [12] came out at 99.3%. Also, in [18], the survival at 96 h was 100%. In addition, in data set [22], the inhibition of growth at 0.125 µg/mL is 99.1%. Further, in data set [24], the inhibition of growth at 0.5 µg/mL stood at 99.4%. Moreover, in data set [25], the inhibition of growth at 0.0313 µg/mL turned out to be 99%. Further, the inhibition of growth at 4 µg/mL in [27] was 98.7%. In addition, in [30], the inhibition of growth at 0.25 µg/mL stood at 99.2%.
As for `c1ccc(-c2nnn(CCCSc3nc4ccccc4o3)n2)cc1`, the growth inhibition (GI) in [2] stood at 6%; in data set [16], 27%; in data set [23] it was 43.4%. Also, the inhibition of growth at 64 µg/mL in data set [9] is 20.6%.
Turning to `Clc1ccccc1-c1nnn(CCCSc2nc3ccccc3s2)n1`, the inhibition of growth at 2 µg/mL in data set [1] worked out at 98%. Also, the figures for the growth inhibition (GI) in data set [2], in data set [16] and in [23] were 0%, 5% and 16.7%, respectively. For the same compound, the inhibition of growth at 16 µg/mL in data set [6] stood at 98.8%. For the same compound, the inhibition of growth at 8 µg/mL in data set [7] turned out to be 98.6%. The inhibition of growth at 64 µg/mL in [9] came out at 0%. The inhibition of growth at 0.0625 µg/mL in [11] amounted to 98.9%. Further, in [12], the inhibition of growth at 1 µg/mL was 98.7%. For the same compound, the inhibition of growth at 0.125 µg/mL in [22] was 99%. Besides, the inhibition of growth at 0.5 µg/mL in data set [24] amounted to 98.6%. Moreover, the inhibition of growth at 0.0313 µg/mL in data set [25] is 98.8%. In data set [27], the inhibition of growth at 4 µg/mL was 98.7%. For the same compound, the inhibition of growth at 0.25 µg/mL in [30] came to 98.7%.
For the compound `O=S(=O)(CCn1nnc(-c2ccccc2)n1)c1ccccc1`, in data set [1], the inhibition of growth at 2 µg/mL was determined as 99%. Further, the growth inhibition (GI) in [2] turned out to be 17.7%; in [16], 14.5%; in data set [23], 41.1%. In addition, the inhibition of growth at 16 µg/mL in data set [6] was 99.1%. Further, the inhibition of growth at 8 µg/mL in [7] is 99.1%. Further, in [9], the inhibition of growth at 64 µg/mL was 18.5%. The inhibition of growth at 0.0625 µg/mL in data set [11] came out at 99%. Further, in data set [12], the inhibition of growth at 1 µg/mL turned out to be 99%. In addition, the inhibition of growth at 0.125 µg/mL in [22] came out at 98.7%. In addition, the inhibition of growth at 0.5 µg/mL in data set [24] was 98.9%. Besides, in [25], the inhibition of growth at 0.0313 µg/mL was determined as 99.1%. In [27], the inhibition of growth at 4 µg/mL is 98.9%. The inhibition of growth at 0.25 µg/mL in data set [30] was 99%.
`Clc1ccccc1-c1nnn(CCCSc2nc3ccccc3o2)n1`: the inhibition of growth at 2 µg/mL in data set [1] stood at 99.1%. For the same compound, the growth inhibition (GI) in data set [2] was determined as 0%; in data set [16], 14.5%; in data set [23], 33.4%. Besides, the Activity came out at 100% in data set [3]; 100% in data set [5]; 100% in [14]; 97% in [19]; 100% in [20]; 100% in data set [21]. The Activity in data set [26] and in data set [29] was 100% in each case. Besides, the inhibition of growth at 16 µg/mL in [6] came to 99.1%. Besides, the inhibition of growth at 8 µg/mL in [7] came out at 99.2%. For the same compound, the MIC in data set [8] was 1 µg/mL; in data set [13] it was above 16 µg/mL; in data set [17], 1 µg/mL; in [28], 1.25 µg/mL. Besides, the inhibition of growth at 64 µg/mL in data set [9] was 6%. Also, the inhibition of growth at 1 µg/mL in data set [12] turned out to be 99.1%. Besides, the survival at 96 h in data set [18] turned out to be 100%. Moreover, the inhibition of growth at 0.5 µg/mL in data set [24] worked out at 98.9%. The inhibition of growth at 4 µg/mL in data set [27] came out at 99.2%.
Consider `Cc1ccc(-c2nnn(CCCSc3nc4ccccc4o3)n2)cc1`, for which the growth inhibition (GI) is 0% in data set [2], 16% in data set [16] and 43.4% in data set [23]. Also, in data set [9], the inhibition of growth at 64 µg/mL worked out at 11.8%.

As usually defined, the MIC is the lowest concentration that inhibits growth of the organism.

The values are drawn from ChEMBL document CHEMBL3856287, “Synthesis of novel tetrazole derivatives and evaluation of their antifungal activity” (Bioorg Med Chem, 2016).
